Results as given in the NIST ThermoML archive (doi:10.1016/j.jct.2005.03.027).

Legend:
[1] = xn = mol fraction of the nth substance listed; settings: 101 kPa, Liquid
[2] = 101 kPa, Liquid
[3] = refractive index (Na D-line) (dimensionless); settings: 293.15 K; 101.33 kPa; Liquid; Standard Abbe refractometry

BrC(Br)C(Br)Br [1,1,2,2-tetrabromoethane] + CCCCCCCCCCO
[1]
Settings | mass density, 293.15 K [kg/m3] | mass density, 303.15 K [kg/m3] | viscosity, 293.15 K [mPa·s] | viscosity, 303.15 K [mPa·s]
x1 = 0.1023 | 968.19 | 960.09 | 14.09 | 9.449
x1 = 0.202 | 1114.37 | 1104.97 | 13.66 | 9.246
x1 = 0.3012 | 1272.36 | 1261.57 | 13.24 | 9.048
x1 = 0.4012 | 1446.62 | 1434.34 | 12.82 | 8.863
x1 = 0.5007 | 1636.66 | 1622.78 | 12.43 | 8.701
x1 = 0.6006 | 1847.04 | 1831.45 | 12.06 | 8.57
x1 = 0.7011 | 2081.74 | 2064.32 | 11.74 | 8.482
x1 = 0.8006 | 2340.68 | 2321.36 | 11.45 | 8.437
x1 = 0.9006 | 2632.79 | 2611.47 | 11.19 | 8.422
x1 = 1 | 2963.2 | 2939.86 | 10.94 | 8.413

CCCCCCCO [heptan-1-ol]
[2]
Settings | mass density [kg/m3] | viscosity [mPa·s]
293.15 K | 822.39 | 7.058
303.15 K | 815.41 | 4.821

Settings | refractive index
[3] | 1.42397

BrC(Br)C(Br)Br [1,1,2,2-tetrabromoethane] + CCCCCCO
[1]
Settings | mass density, 293.15 K [kg/m3] | mass density, 303.15 K [kg/m3] | viscosity, 293.15 K [mPa·s] | viscosity, 303.15 K [mPa·s]
x1 = 0.1001 | 1021.6 | 1012.63 | 5.764 | 4.031
x1 = 0.2007 | 1227.75 | 1216.94 | 6.116 | 4.348
x1 = 0.3004 | 1434.26 | 1421.62 | 6.633 | 4.709
x1 = 0.4004 | 1643.89 | 1629.48 | 7.123 | 5.112
x1 = 0.5005 | 1856.54 | 1840.42 | 7.644 | 5.542
x1 = 0.6008 | 2072.22 | 2054.51 | 8.195 | 6.009
x1 = 0.6999 | 2288.24 | 2269.06 | 8.786 | 6.508
x1 = 0.8012 | 2512.37 | 2491.76 | 9.433 | 7.068
x1 = 0.9001 | 2734.51 | 2712.53 | 10.14 | 7.699
x1 = 1 | 2963.2 | 2939.86 | 10.94 | 8.413

CCCCCO [pentan-1-ol]
[2]
Settings | mass density [kg/m3] | viscosity [mPa·s]
293.15 K | 815.03 | 4.052
303.15 K | 807.6 | 2.926

Settings | refractive index
[3] | 1.40995

BrC(Br)C(Br)Br [1,1,2,2-tetrabromoethane] + CCCCCCCO
[1]
Settings | mass density, 293.15 K [kg/m3] | mass density, 303.15 K [kg/m3] | viscosity, 293.15 K [mPa·s] | viscosity, 303.15 K [mPa·s]
x1 = 0.099 | 1001.11 | 992.57 | 7.314 | 5.033
x1 = 0.1999 | 1189.38 | 1179.18 | 7.577 | 5.262
x1 = 0.3001 | 1383.2 | 1371.29 | 7.86 | 5.513
x1 = 0.3995 | 1582.25 | 1568.62 | 8.171 | 5.801
x1 = 0.5006 | 1792.24 | 1776.88 | 8.531 | 6.128
x1 = 0.5987 | 2003.6 | 1986.59 | 8.915 | 6.484
x1 = 0.6993 | 2229.07 | 2210.42 | 9.351 | 6.886
x1 = 0.799 | 2461.79 | 2441.56 | 9.836 | 7.336
x1 = 0.8992 | 2706 | 2684.21 | 10.38 | 7.862
x1 = 1 | 2963.2 | 2939.86 | 10.94 | 8.413

CCCCCCCCCCO [decan-1-ol]
[2]
Settings | mass density [kg/m3] | viscosity [mPa·s]
293.15 K | 829.7 | 14.54
303.15 K | 822.85 | 9.676

Settings | refractive index
[3] | 1.43706

BrC(Br)C(Br)Br [1,1,2,2-tetrabromoethane]
[2]
Settings | mass density [kg/m3] | viscosity [mPa·s]
293.15 K | 2963.2 | 10.94
303.15 K | 2939.86 | 8.413

Settings | refractive index
[3] | 1.63535

CCCCCCO [hexan-1-ol] + BrC(Br)C(Br)Br
[1], x2 = 0
Settings | mass density [kg/m3] | viscosity [mPa·s]
293.15 K | 818.92 | 5.37
303.15 K | 811.73 | 3.744

CCCCCCO [hexan-1-ol]
[2]
Settings | mass density [kg/m3] | viscosity [mPa·s]
293.15 K | 818.92 | 5.37
303.15 K | 811.73 | 3.744

Settings | refractive index
[3] | 1.41826

BrC(Br)C(Br)Br [1,1,2,2-tetrabromoethane] + CCCCCCCCO
[1]
Settings | mass density, 293.15 K [kg/m3] | mass density, 303.15 K [kg/m3] | viscosity, 293.15 K [mPa·s] | viscosity, 303.15 K [mPa·s]
x1 = 0.099 | – | 980.93 | – | 6.446
x1 = 0.101 | 989.26 | – | 9.28 | –
x1 = 0.1999 | – | 1151.32 | – | 6.535
x1 = 0.2013 | 1161.15 | – | 9.347 | –
x1 = 0.2997 | 1338.99 | – | 9.426 | –
x1 = 0.3001 | – | 1327.63 | – | 6.646
x1 = 0.3994 | 1529.17 | – | 9.527 | –
x1 = 0.3995 | – | 1516.19 | – | 6.774
x1 = 0.5002 | 1732.98 | – | 9.661 | –
x1 = 0.5006 | – | 1718.29 | – | 6.947
x1 = 0.5987 | – | 1931.52 | – | 7.155
x1 = 0.6003 | 1947.95 | – | 9.831 | –
x1 = 0.6993 | – | 2157.22 | – | 7.398
x1 = 0.6998 | 2175.4 | – | 10.04 | –
x1 = 0.799 | – | 2399.36 | – | 7.708
x1 = 0.7998 | 2419.28 | – | 10.32 | –
x1 = 0.8992 | – | 2662.77 | – | 8.065
x1 = 0.9011 | 2684.42 | – | 10.63 | –
x1 = 1 | 2963.2 | 2939.86 | 10.94 | 8.413

CCCCCCCCO [octan-1-ol] + BrC(Br)C(Br)Br
[1], x2 = 0
Settings | mass density [kg/m3] | viscosity [mPa·s]
293.15 K | 824.99 | 9.219
303.15 K | 818.09 | 6.358

CCCCCCCCO [octan-1-ol]
[2]
Settings | mass density [kg/m3] | viscosity [mPa·s]
293.15 K | 824.99 | 9.219
303.15 K | 818.09 | 6.358

Settings | refractive index
[3] | 1.42958

CCCCCCCCCCO [decan-1-ol] + BrC(Br)C(Br)Br
[1], x2 = 0
Settings | mass density [kg/m3] | viscosity [mPa·s]
293.15 K | 829.7 | 14.54
303.15 K | 822.85 | 9.676

BrC(Br)C(Br)Br [1,1,2,2-tetrabromoethane] + CCCCCO
[1]
Settings | mass density, 293.15 K [kg/m3] | mass density, 303.15 K [kg/m3] | viscosity, 293.15 K [mPa·s] | viscosity, 303.15 K [mPa·s]
x1 = 0.1009 | 1048.36 | 1038.85 | 4.543 | 3.24
x1 = 0.2014 | 1276.63 | 1265.1 | 5.078 | 3.639
x1 = 0.3004 | 1497.47 | 1484.08 | 5.653 | 4.078
x1 = 0.4003 | 1716.5 | 1701.36 | 6.278 | 4.563
x1 = 0.5014 | 1934.64 | 1917.88 | 6.942 | 5.089
x1 = 0.6001 | 2144.16 | 2125.93 | 7.621 | 5.631
x1 = 0.7001 | 2353.22 | 2333.58 | 8.346 | 6.217
x1 = 0.7998 | 2558.61 | 2537.64 | 9.119 | 6.846
x1 = 0.8997 | 2761.73 | 2739.49 | 9.968 | 7.555
x1 = 1 | 2963.2 | 2939.86 | 10.94 | 8.413

CCCCCO [pentan-1-ol] + BrC(Br)C(Br)Br
[1], x2 = 0
Settings | mass density [kg/m3] | viscosity [mPa·s]
293.15 K | 815.03 | 4.052
303.15 K | 807.6 | 2.926

CCCCCCCO [heptan-1-ol] + BrC(Br)C(Br)Br
[1], x2 = 0
Settings | mass density [kg/m3] | viscosity [mPa·s]
293.15 K | 822.39 | 7.058
303.15 K | 815.41 | 4.821
